This is an account of results in patent publication US20250127741A1, “MEDICINAL COMPOSITION COMPRISING RIBOSE AND AMINO ACIDS” (MEE-HU PHARMA GMBH, priority 2021, published 2025).

This test deals with resistant strain of E. Coli (O157.H7). The test is described as follows: In vivo animal study #2: granuloma pouch model in Wistar rats, bacterial counts in pouch fluid. Conditions: male Wistar rats; given alone every 12 h, six doses (co-trimoxazole 30 mg/kg i.p.; inventive composition 500 mg/kg p.o.); all time intervals. The protocol: Male Wistar rats, weighing 200-250 g, were infected with a resistant strain of E. Coli (O157.H7) using the granuloma pouch model. Specifically, pouches were produced by injecting 30 ml of sterile filtered air followed by injection of 0.5 ml of 0.5% croton oil in sesame seed oil deep into the loose connective dorsal tissue. Two days later, approximately 10 ml of air were withdrawn, and after 2 more days, 2 ml of 1% peptone and 0.35% agar in saline solution were injected in the pouch. On day 10, rats were infected with 10^6 CFU of E. coli suspended in 1.5 ml of THB containing 2.5% gastric mucin and 0.35% agar.
The rats were divided in groups of five rats, and the following drugs, either alone or concurrently administered, were administered every 12 h for three consecutive days, making a total of six doses, starting 24 h after infection: co-trimoxazole (Septrin, GlaxoSmithKline) 30 mg/kg (i.p) and the inventive composition 500 mg/kg (p.o) (the 500 mg referring to the weight of the lyophilisate of Table 1 contained in the amount of mixed solution administered). […]
Samples (0.5 mL) of pouch fluid were withdrawn from each animal just before treatment (0 time), 3 h after the first dose, just before the last dose, 3 and 24 h after the last dose. […] The results represent the average values obtained from all the animals in the same group at the same intervals and expressed as log 10 CFU/ml. […]

For co-trimoxazole [cotrimoxazole], the “bacterial counts in pouch fluid, difference to control group” value is given as “no significant differences”.
